What was measured:
[1] = test system: non-senescent IMR90 cells; experiment: Cell counting assay, non-senescent IMR90; assay type: cell-based, human; conditions: 3 μM, 24 hour exposure
Procedure: (§1) To determine whether ABT-263 is selectively toxic to senescent cells compared to non-senescent cells, a cell counting assay was used to determine cell survival following treatment with ABT-263. […] Each condition was seeded in three wells and counted independently. Cells were counted after a 24 hour exposure to ABT-263 (or control culture).

[2] = test system: senescent IMR90 cells (Sen(IR) IMR90); experiment: Cell counting assay, senescent IMR90; assay type: cell-based, human; conditions: 3 μM, 24 hour exposure
Procedure: as §1

[3] = test system: non-senescent IMR90 cells; experiment: CellTiter-Glo cell viability assay, non-senescent IMR90; assay type: cell-based; conditions: Homo sapiens, IMR-90, 72 h; non-senescent IMR90, 3 days
Procedure: (§2) To determine whether ABT-263 is selectively toxic to senescent cells compared to non-senescent cells, a cell viability assay was used to assess cell survival following treatment with ABT-263. IMR90 cells (human primary lung fibroblasts (IMR90) (IMR-90 (ATCC® CCL-186™, Manassas, Virginia) were seeded in six well plates, and cells were induced to senescence with 10 Gy of ionizing radiation (IR) (Day 0). The media was refreshed every 3 days. The senescent phenotype is allowed to develop for 7 days at which point a cell count was made to determine the baseline number of cells followed by seeding into 96-well plates. On day 8, the senescent cells (irradiated) and the non-senescent cells (the non-radiated cells), were exposed to serial dilutions of ABT-263 for a period of 3 days. ABT-263 concentrations ranged from 0.5 nM to 3 μM. Each condition was seeded in triplicate.
(§3) After three days of treatment (Day 11), cells were assayed for cell survival using the commercially available CellTiter-Glo® (CTG) Luminescent Cell Viability Assay (Promega Corporation, Madison, Wisconsin). The assay determines the number of viable cells in culture based on the quantitation of ATP present which is an indicator of metabolically active cells.
The experiments performed for assessing the effect of these other Bcl-2 inhibitors were performed essentially as described in Example 7. […]

[4] = test system: senescent IMR90 cells; experiment: CellTiter-Glo cell viability assay, senescent IMR90; assay type: cell-based, human
Procedure: as §2, §3
The experiments performed for assessing the effect of these other Bcl-2 inhibitors were performed essentially as described in Example 7. Cells were exposed to ABT-199 at serial dilution concentrations ranging from 15 nM to 100 μM (FIGS. 26 and 27). Cells were exposed to Obatoclax at concentrations ranging from 1.4 nM to 9 μM (FIG. 28).
IMR90 cells were induced to senescence by irradiation as described in Example 7. The irradiated IMR90 cells and non-senescent IMR90 cells were then exposed to a compound called ML214 that is a Bcl-2A1 specific inhibitor.
The effect of ABT-263 in combination with the Akt inhibitor MK-2206 was tested for selective toxicity of senescent cells compared to non-senescent cells in IMR90 cells. The methods of Example 7 were repeated except that cell cultures were exposed to 10 nM MK-2206 (Selleckem, Cat #S1078) in addition to serial dilutions of ABT-263.

[5] = test system: non-senescent Primary Renal Cortical Cells; experiment: CellTiter-Glo cell viability assay, non-senescent renal epithelial cells; assay type: cell-based; conditions: 72 h, 3 days
Procedure: as §2, §3
(§4) The methods of Example 7 were repeated in other cell strains. […]

[6] = test system: senescent Primary Renal Cortical Cells; experiment: CellTiter-Glo cell viability assay, senescent renal epithelial cells; assay type: cell-based; conditions: 72 h, 3 days
Procedure: as §2, §3, §4

[7] = test system: non-senescent HCA2 foreskin fibroblast cells; experiment: CellTiter-Glo cell viability assay, non-senescent HCA2; assay type: cell-based; conditions: 72 h; non-senescent HCA2, 3 days
Procedure: as §2, §3, §4

[8] = test system: senescent HCA2 foreskin fibroblast cells; experiment: CellTiter-Glo cell viability assay, senescent HCA2; assay type: cell-based; conditions: 72 h; senescent HCA2, 3 days
Procedure: as §2, §3, §4

[9] = test system: senescent IMR90 cells (IMR90 Sen(IR)); experiment: Pan-caspase inhibitor (Q-VD-OPh) apoptosis assay in IMR90 cells; assay type: cell-based, human
Procedure: Lung fibroblast cell line IMR90 (human primary lung fibroblasts, ATCC® CCL-186™, Manassas, Virginia) were seeded in six-well plates and induced to senesce with 10 Gy of ionizing radiation (IR) as described in Example 12. After senescence was established, cells were re-seeded into 96 well plates. […] At the end of the assay time period, cells were counted. Each condition was seeded in three plate wells and counted independently. […] Cell survival was determined using the commercially available CellTiter-Glo® Luminescent Cell Viability Assay (Promega Corporation, Madison, Wisconsin). The assay determines the number of viable cells in culture based on the quantitation of ATP present which is an indicator of metabolically active cells.

[10] = test system: 3MR or INK-ATTAC mice exposed to cigarette smoke; experiment: Chronic cigarette smoke exposure model (COPD); assay type: in vivo, mouse; conditions: after 2 months of cigarette smoke exposure; vs untreated controls
Procedure: In a second animal model for pulmonary diseases (e.g., COPD), mice were exposed to cigarette smoke. The effect of a senolytic agent on the mice exposed to smoke is assessed by senescent cell clearance, lung function, and histopathology.
Six week-old 3MR (n=35) or INK-ATTAC (n=35) mice were chronically exposed to cigarette smoke generated from a Teague TE-10 system, an automatically-controlled cigarette smoking machine that produces a combination of side-stream and mainstream cigarette smoke in a chamber, which is transported to a collecting and mixing chamber where varying amounts of air is mixed with the smoke mixture. The COPD protocol was adapted from the COPD core facility at Johns Hopkins University (at Internet site web.jhu.edu/Biswal/exposure_core/copd.html#Cigarette_Smoke) (Rangasamy et al., 2004, J. Clin. Invest. 114:1248-1259; Yao et al., 2012, J. Clin. Invest. 122:2032-2045). Mice received a total of 6 hours of cigarette smoke exposure per day, 5 days a week for 6 months. Each lighted cigarette (3R4F research cigarettes containing 10.9 mg of total particulate matter (TPM), 9.4 mg of tar, and 0.726 mg of nicotine, and 11.9 mg carbon monoxide per cigarette [University of Kentucky, Lexington, KY]) was puffed for 2 seconds and once every minute for a total of 8 puffs, with the flow rate of 1.05 L/min, to provide a standard puff of 35 cm^3. The smoke machine was adjusted to produce a mixture of side stream smoke (89%) and mainstream smoke (11%) by smoldering 2 cigarettes at one time. The smoke chamber atmosphere was monitored for total suspended particulates (80-120 mg/m^3) and carbon monoxide (350 ppm). Beginning at day 7, (10) INK-ATTAC and (10) 3MR mice were treated with AP20187 (3× per week) or gancyclovir (5 consecutive days of treatment followed by 16 days off drug, repeated until the end of the experiment), respectively. An equal number of mice received the corresponding vehicle. The remaining […] (15 INK-ATTAC and 15 3MR) were evenly split with 5 of each genetically modified strain placed into three different treatment groups. One group (n=10) received Nutlin-3A (25 mg/kg dissolved in 10% DMSO/3% Tween-20 in PBS, treated 14 days consecutively followed by 14 days off drug, repeated until the end of the experiment). […]
After two months of cigarette smoke exposure, lung function was assessed by monitoring oxygen saturation using the MouseSTAT PhysioSuite pulse oximeter (Kent Scientific). […] Mice were monitored for 30 seconds and the average peripheral capillary oxygen saturation (SpO2) measurement over this duration was calculated.

[11] = test system: p16-3MR mice treated with paclitaxel; experiment: Voluntary exercise (wheel counts) after paclitaxel in p16-3MR mice; assay type: in vivo, mouse; conditions: ABT-263 100 mg/kg i.p. daily 7 days; ganciclovir 25 mg/kg i.p. daily 3 days
Procedure: The capability of a senolytic agent, such as ABT-263, to reduce chemotherapy related side effects, such as fatigue, was examined in p16-3MR transgenic mice. In addition to doxorubicin, paclitaxel also induces cellular senescence when administered to animals. See Example 2 for a description of the p16-3MR transgenic mouse model.
In this experiment, paclitaxel was administered to groups of p16-3mr mice (n=4) three times, every two days. Two days after the third dose of paclitaxel, ganciclovir was administered daily for three days (days 1, 2, and 3) intraperitoneally at 25 mg/kg. ABT-263 (100 mg/kg) was administered intraperitoneally daily for seven days after paclitaxel administration. Two days after the last dose of ABT-263, all groups of animals were housed in metabolic cages (promethion, sable systems international, Las Vegas, NV) to monitor voluntary exercise as determined by wheel counts. Data were collected and analyzed two days later. Clearance of senescent cells by ABT-263 and ganciclovir restored approximately 70% of wheel count reduction caused by chemotherapy treatment.

## CC1(C)CCC(c2ccc(Cl)cc2)=C(CN2CCN(c3ccc(C(=O)NS(=O)(=O)c4ccc(N[C@H](CCN5CCOCC5)CSc5ccccc5)c(S(=O)(=O)C(F)(F)F)c4)cc3)CC2)C1 [ABT-263, 4-[4-[[2-(4-chlorophenyl)-5,5-dimethylcyclohexen-1-yl]methyl]piperazin-1-yl]-N-[4-[[(2R)-4-morpholin-4-yl-1-phenylsulfanylbutan-2-yl]amino]-3-(trifluoromethylsulfonyl)phenyl]sulfonylbenzamide]
[1]
  Percentage of survival of cells after 24 hours: absence of toxicity
[2]
  Cell counts relative to counts before treatment: 28%
[3]
  IC50: 2400 nM
[4]; Homo sapiens, IMR-90, 72 h, senescent IMR90, 3 days
  IC50: 140 nM
[4]; IMR90, non-senescent vs senescent IC50
  In vitro theoretical therapeutic index: 17
[5]
  IC50: 430 nM
[6]
  IC50: 25 nM
[7]
  IC50: > 3000 nM
[8]
  IC50: 410 nM
[9]; 0.33 or 1 μM, 3 days, Q-VD-OPh 20 μM
  Percent of surviving senescent cells in the presence of the pan-caspase inhibitor: increased
[9]; IMR90, 3 days
  Selective killing of senescent cells: selectively kills senescent cells
[10]
  SpO2 levels: statistically significant increases
[11]
  Restoration of wheel count reduction caused by chemotherapy: approximately 70%

Reference: patent US11980616B2, “Treating liver disease by selectively eliminating senescent cells” (Buck Institute for Research on Aging, priority 2014, dated 2024)
